From patent US11419902B2, “Compositions comprising bacterial strains” (4D Pharma Research Limited, priority 2018, dated 2022)

How the values were obtained:
DRD2 = DRD2 expression in SH-SY5Y cells; format: cell-based; settings: vs untreated cells
Procedure: SH-SY5Y were plated in 10 cm petri dishes a density of 2×10^6 cells. After 24 h cells were treated in differentiation medium (growth medium containing 1% FBS without RA) with 10% bacteria supernatants or YCFA+, 10 uM RA, 200 uM hexanoic acid or 200 uM valproic acid, for 17 hrs. There after representative images were taken using phase contrast EVOS XL core microscope at 40×10.65 magnification. Cells were collected, and total RNA was isolated according to RNeasy mini kit protocol (Qiagen). cDNAs were made using the high capacity cDNA reverse transcription kit (Applied Biosystems). Gene expression was measured using qPCR. GAPDH was used as internal control. Fold change was calculated according to the 2^(−ΔΔct) method.
The inventors measured the change in DRD2 expression in neuroblastoma cells using the same method as described in Example 1.

Caspase 3 (Casp3) = assay: Caspase 3 expression in SH-SY5Y cells; format: cell-based; settings: undifferentiated SH-SY5Y cells, vs control
Source text: The inventors measured the change in Casp3 expression in neuroblastoma cells.

HDAC = HDAC inhibition on HT-29 cell lysate; format: biochemical
Procedure: Pure cultures of bacteria were grown anaerobically in YCFA+ broth until they reached their stationary growth phase. Cultures were centrifuged at 5,000×g for 5 minutes and the cell-free supernatant (CFS) was filtered using a […] (Millipore, UK). 1 mL aliquots of the CFS were stored at −80° C. until use. Sodium butyrate, hexanoic and valeric acid were obtained from Sigma Aldrich (UK) and suspensions were prepared in YCFA+ broth.
To investigate which metabolites were responsible for the strain-induced HDAC inhibition, different concentrations of hexanoic acid, valeric acid and sodium butyrate were measured for their HDAC inhibition on whole HT-29 cells and on HT-29 cell lysate.

IL-8 [1] = assay: IL-8 secretion by differentiated HT29-mtx cells; format: cell-based; settings: 24 h, vs untreated and YCFA+-treated cells
Source text: The ability of MRx0029 to cause any intestinal barrier dysfunction was investigated. HT29-mtx epithelial, mucin-producing cell monolayers were used as an in vitro model to evaluate gut barrier disruption and immune stimulation following treatment with MRx0029.

IL-8 [2] = assay: IL-8 secretion by the HT29 cell line co-incubated with bacteria (ELISA); format: cell-based; settings: differentiated HT29 cells, bacteria 10^7 CFU 2 hr, with THP1 conditioned media or alone
Procedure: HT29 cells were plated in 12 well plates at a density of 200,000 cells/well. Cells were being differentiated for 10 days (media change every 2 days). The day of the experiment cells were placed in the anaerobic hood and washed with anaerobic equilibrated HANKs solution. Then 900 ul of growth media (without FBS and antibiotics) was added to the cells. Bacteria cells were resuspended in of growth media (without FBS and antibiotics) and were then added at 10^7 CFU in total in 100 ul. Cells were co-incubated with bacteria for 2 hr in an anaerobic hood. Afterwards cells were washed in growth media without FBS but containing antibiotics. Cells were left to rest in 1 ml of THP1 condition media for 24 h. After 24 h incubation the supernatant was collected and spun down at 10,000 g for 3 min and 4° C. Samples were frozen at −80° C. until further use.
THP1 condition media: THp1 were seeded on T25 flask at density of 4×10^6/flask. Cells were treated in RPMI media (contain 2 mM L-glutamine without FBS) with 1 ug/ml LPS or LPS+5 mM ATP (ATP added 3 hours after LPS). Cells were left to rest for 24 hr. Thereafter Condition Media (CM) was collected by spinning down the cells at 250 g for 5 min and RT. Different CMs were used to treat HT29 Cells. A small aliquot was frozen at […] for ELISA. […]

NF-κB-Ap1 promoter = assay: NF-κB promoter activation in HEK-TLR4 reporter cells (SEAP); format: cell-based, human; settings: 10% supernatant 22 h, on its own (without LPS)
Procedure: HEK293-Blue reporter cells stably expressing human TLR4 (HEK-TLR4), were cultured according to the manufacturer's instructions. Briefly, HEK-TLR4 cells were maintained in DMEM 4.5 g/L D-glucose supplemented with 10% (v/v) heat-inactivated FBS, 4 mM L-Glutamine, 100 U/ml penicillin, 100 μg/ml streptomycin, 100 μg/ml normocin, 1×HEK-Blue selection media.
Briefly, cells were washed with PBS, dissociated in PBS and collected in growth media. Cells were plated in 96-well plates at a density of 25,000 cells/well. To evaluate the effect of bacteria strains on LPS inducing NF-κB promoter activation, cells were treated with 10 ng/ml LPS in presence or absence of 10% supernatants (isolated as described above) and incubated in a CO2 incubator. Treatments proceeded for 22 h at 37° C. and 5% CO2, after which the detection of Secreted Embryonic Alkaline Phosphatase (SEAP) activity from cell culture supernatant was performed using QUANTI-blue solution according to manufacturer's instructions. Briefly, 20 μl of cell-free supernatant was collected and analysed for the presence of SEAP by mixing with 200 μl of sterile-filtered QUANTI-Blue detection media. After 2 h incubation at 37° C., optical density was measured at 655 nm on a microplate reader (iMark microplate, Bio-Rad).

IL-8 [3] = assay: IL-8 secretion in U373 cells treated with SCFAs or supernatant fractions (ELISA); format: cell-based, Human; settings: U373 cells, with or without 1 μg/ml LPS, 24 h
Procedure: Human glioblastoma astrocytoma cell line (U373), were maintained in 25 ml MEME 4.5 g/L D-glucose supplemented with 10% heat-inactivated FBS, 4 mM L-Glutamine, 100 U/ml penicillin, 100 μg/ml streptomycin and 5 μg/ml plasmocin, 1% Non-Essential Amino Acids, 1% Sodium Pyruvate (referred to as full growth media).
U373 cells were prepared as described above. Cells were pre-treated for 1 h with 1 μg/ml LPS indicated above and incubated at 37° C. and 5% CO2. After 1 h pre-incubation, cells were removed from CO2 incubator and treated with increasing concentration of fresh prepared Sodium Butyrate (SB), Sodium Valerate (SV) and Hexanoic Acid (HA).
U373 cells were prepared as described above. Cells were pre-treated for 1 h with 1 μg/ml LPS as indicated above. Afterwards, cells were removed from CO2 incubator and treated with 100 μl of the different fractions. Fractions from media were used as controls. Cell-free supernatants were collected 24 h after treatment and analysed by ELISA for IL-8 secretion (as outlined above).

IL-6, CD11b, TLR4 = assay: Gene expression in the brain of BALB/c mice (qPCR); format: in vivo; settings: vs vehicle control
Procedure: BALB/c mice were administered live biotherapeutic and tissues were isolated for analysis of gene expression using qPCR.

## Megasphaera massiliensis MRx0029
DRD2
  expression of DRD2: significantly decreased the expression of DRD2
Caspase 3 (Casp3)
  expression of Casp3: increased the expression of Casp3 threefold
HDAC
  HDAC inhibition on HT-29 cell lysate: strong HDAC inhibition
IL-8 [1]
  secretion of IL-8: even lower secretion of IL-8
IL-8 [2]
  IL-8 secretion: increased IL-8 secretion
NF-κB-Ap1 promoter
  NF-κB-Ap1 promoter activation: induced NF-κB-Ap1 promoter activation
IL-8 [3]
  IL-8 secretion in the presence and absence of LPS: induced IL-8 secretion
IL-6, CD11b, TLR4
  TLR4 expression in the amygdala: significantly increase TLR4 expression
